Assay results reported in paper PMC12298827, “Subchronic Toxicities of Four Per- and Polyfluoroalkyl Substances (PFASs) by Oral Exposure in Sprague–Dawley Rats” (Toxics, 2025).

Tested on: male and female Sprague–Dawley rats
Assay: 90-day subchronic oral gavage toxicity study
Type: in vivo, rat
Conditions: female
Description: Subchronic (90-day) studies were performed in accordance with current U.S. EPA’s Toxic Substances Control Act Good Laboratory Practice (GLP) Standards, with the following two general exceptions to the GLP guidelines: Analysis of the dose formulations was conducted according to RTI-approved Standard Operating Procedures, and corn oil (the vehicle) was not characterized (certificate of analysis from the vendor is available in the appendices to the final reports). Male and female Sprague–Dawley rats (five dose levels plus a control, n = 10/sex/dose group, corn oil vehicle dose volume of 3 mL/kg; oral gavage) were used in these studies, and the rats were euthanized on SD 91. The dose levels for PFHI were 0, 12.5, 25, 50, 100, and 200 mg/kg-day. The dose levels for MHFPK were 0, 18.8, 37.5, 75, 150, and 300 mg/kg-day. The dose levels for PFNAC were 0, 0.1, 0.3, 1.0, 3.0, and 10 mg/kg-day for male rats and 0, 0.3, 1.0, 3.0, 10, and 30 mg/kg-day for female rats. For CTFPA, the dose levels were 0, 1.9, 3.8. 7.5, 15, and 30 mg/kg-day for male rats and 0, 6.3, 12.5, 25, 50, and 100 mg/kg-day for female rats. For each PFAS, three batches of dosing solution were prepared. The time between the batch preparation of the dosing solutions ranged between 29 and 39 days. Blood samples were collected from all the rats at termination for serum chemistry, hematology, coagulation, and the analysis of the parent PFAS chemical in the plasma. In vivo data collection and further detail on the endpoints examined postmortem are described below.
The rats were observed twice daily for morbidity and mortality throughout the study period. At least once prior to randomization to test groups and weekly thereafter, the rats were physically examined, and bodyweights were obtained. Feed consumption was quantified weekly starting on SD 1.
Neurotoxicity was evaluated using the functional observational battery (FOB) and measuring locomotor activity (LMA) 2–4 h post dosing on SDs 78–80 and 80–84, respectively. For both the 14- and 90-day studies, an ophthalmologic examination was conducted prior to randomization and near the end of the study, using indirect ophthalmoscopy and slit–lamp biomicroscopy (as needed) after the administration of a mydriatic solution.
Hematology, biochemistry, and coagulation endpoints were measured at the termination of the study. A Siemens Advia 2120i hematology analyzer (Siemens Healthineers, Erlangen, Germany) was used to measure (or calculate) the parameters related to the complete blood count, leukocyte differential count, and reticulocyte count. The hematology parameters are listed and described in Table 2. The prothrombin time […] and activated partial thromboplastin time (APTT) were measured using an Instrumentation Laboratory (Bedford, MA, USA) ACL Elite Pro coagulation analyzer (laser–nephelometric centrifugal method).
At necropsy, the rats were visually examined for external abnormalities and organ weights (absolute and relative to the BW and brain weight), which were recorded (paired organs weighed together). The tissues were preserved in 10% neutral buffered formalin (NBF), except for the ocular tissues, testes, and epididymides, which were preserved in modified Davidson’s fixative and later transferred to 10% NBF. Bone marrow smears were prepared from the femurs, and the slides were air-dried, fixed in methanol, stained, and stored at room temperature for possible future evaluation. The preserved tissues were embedded in paraffin, sectioned, stained with hematoxylin and eosin, and examined by a board-certified veterinary pathologist.
Statistical analysis was performed using Provantis™ Version 10 or greater (Instem LSS, Limited; Stone, Staffordshire, UK). Differences among the treatment groups compared to the control were evaluated using one-way analysis of variance (ANOVA) if the underlying assumptions of a normal distribution (Shapiro–Wilk test) and the homogeneity of the variance (Levene’s test) were satisfied. […]

Question: With CC(=O)C(F)(F)C(F)(F)C(F)(F)F [MHFPK, Methyl heptafluoropropyl ketone] as the compound, how does the “% Diff, % BW Gain” value (75 mg/kg-day) read?
Answer: 4.28%

Question: And the “% Diff, Total BW change” value (75 mg/kg-day)?
Answer: 4.15%

Question: And the “% Diff, Total Food Consumed” value (75 mg/kg-day)?
Answer: 4.34%

Question: And the A/G (75 mg/kg-day)?
Answer: 1.27±0.60 ratio

Question: What about the ABEOS (75 mg/kg-day) of the same compound?
Answer: 0.090±0.027 K/µL

Question: What about the ABNEUT (75 mg/kg-day) of the same compound?
Answer: 1.005±0.441 K/µL

Question: And the ABRETi (75 mg/kg-day)?
Answer: 193.71±46.37 10^9/L

Question: And the ALB (75 mg/kg-day)?
Answer: 4.45 ± 0.91 g/dL

Question: And the ALPi (75 mg/kg-day)?
Answer: 55.0±18.5 U/L

Question: And the APTT (75 mg/kg-day)?
Answer: 18.68 s

Question: What about the BUN (75 mg/kg-day) of the same compound?
Answer: 16.5 ± 2.1 mg/dL

Question: And the CHOL (75 mg/kg-day)?
Answer: 99.1 ± 21.5 mg/dL

Question: What about the GLOB (75 mg/kg-day) of the same compound?
Answer: 3.85 ± 0.96 g/dL

Question: What about the GLUC (75 mg/kg-day) of the same compound?
Answer: 159.0 ± 32.6 mg/dL

Question: And the HCT (75 mg/kg-day)?
Answer: 45.88±1.35%

Question: And the HGB (75 mg/kg-day)?
Answer: 14.40 ± 0.50 g/dL

Question: And the “Kidney Weight” value (75 mg/kg-day)?
Answer: 1.91 g

Question: What about the “Kidney/Body Weight” value (75 mg/kg-day) of the same compound?
Answer: 0.59%

Question: What about the “Kidney/Brain Weight” value (75 mg/kg-day) of the same compound?
Answer: 96.8%

Question: And the “Liver Weight” value (75 mg/kg-day)?
Answer: 8.53 g

Question: What about the “Liver/Body Weight” value (75 mg/kg-day) of the same compound?
Answer: 2.62%

Question: What about the “Liver/Brain Weight” value (75 mg/kg-day) of the same compound?
Answer: 432%

Question: And the MPV (75 mg/kg-day)?
Answer: 8.55 ± 0.75 fL

Question: And the PT (75 mg/kg-day)?
Answer: 14.74 s

Question: And the RBC (75 mg/kg-day)?
Answer: 7.823±0.340 M/µL

Question: And the “Total BW change” value (75 mg/kg-day)?
Answer: 94.83 g

Question: And the “Total Food Consumed” value (75 mg/kg-day)?
Answer: 1522 g

Question: And the “% BW Gain” value (150 mg/kg-day)?
Answer: 37.70%

Question: What about the “% Diff, % BW Gain” value (150 mg/kg-day) of the same compound?
Answer: -0.15%

Question: And the “% Diff, Total BW change” value (150 mg/kg-day)?
Answer: -0.78%

Question: What about the “% Diff, Total Food Consumed” value (150 mg/kg-day) of the same compound?
Answer: 5.76%

Question: What about the A/G (150 mg/kg-day) of the same compound?
Answer: 1.14±0.34 ratio

Question: And the ABEOS (150 mg/kg-day)?
Answer: 0.093±0.035 K/µL

Question: What about the ABNEUT (150 mg/kg-day) of the same compound?
Answer: 1.175±0.584 K/µL

Question: And the ABRETi (150 mg/kg-day)?
Answer: 193.46±35.08 10^9/L

Question: What about the ALB (150 mg/kg-day) of the same compound?
Answer: 4.37 ± 0.51 g/dL

Question: What about the ALPi (150 mg/kg-day) of the same compound?
Answer: 47.5±8.8 U/L

Question: What about the APTT (150 mg/kg-day) of the same compound?
Answer: 21.76 s

Question: What about the BUN (150 mg/kg-day) of the same compound?
Answer: 18.2 ± 2.9 mg/dL

Question: And the CHOL (150 mg/kg-day)?
Answer: 104.3 ± 20.7 mg/dL

Question: And the GLOB (150 mg/kg-day)?
Answer: 4.00 ± 0.81 g/dL

Question: What about the GLUC (150 mg/kg-day) of the same compound?
Answer: 166.7 ± 26.3 mg/dL

Question: And the HCT (150 mg/kg-day)?
Answer: 45.40±1.55%

Question: What about the HGB (150 mg/kg-day) of the same compound?
Answer: 14.27 ± 0.54 g/dL

Question: And the “Kidney Weight” value (150 mg/kg-day)?
Answer: 1.84 g

Question: And the “Kidney/Body Weight” value (150 mg/kg-day)?
Answer: 0.57%

Question: What about the “Kidney/Brain Weight” value (150 mg/kg-day) of the same compound?
Answer: 95.8%

Question: And the “Liver Weight” value (150 mg/kg-day)?
Answer: 8.84 g

Question: And the “Liver/Body Weight” value (150 mg/kg-day)?
Answer: 2.74%

Question: And the “Liver/Brain Weight” value (150 mg/kg-day)?
Answer: 462%

Question: What about the MPV (150 mg/kg-day) of the same compound?
Answer: 8.84 ± 0.70 fL

Question: What about the PT (150 mg/kg-day) of the same compound?
Answer: 14.99 s

Question: And the RBC (150 mg/kg-day)?
Answer: 7.731±0.255 M/µL

Question: What about the “Total BW change” value (150 mg/kg-day) of the same compound?
Answer: 90.34 g

Question: What about the “Total Food Consumed” value (150 mg/kg-day) of the same compound?
Answer: 1542 g

Question: What about the “% BW Gain” value (300 mg/kg-day) of the same compound?
Answer: 39.88%

Question: And the “% Diff, % BW Gain” value (300 mg/kg-day)?
Answer: 5.61%

Question: What about the “% Diff, Total BW change” value (300 mg/kg-day) of the same compound?
Answer: 5.11%

Question: And the “% Diff, Total Food Consumed” value (300 mg/kg-day)?
Answer: 7.99%

Question: And the A/G (300 mg/kg-day)?
Answer: 1.01±0.13 ratio

Question: What about the ABEOS (300 mg/kg-day) of the same compound?
Answer: 0.085±0.022 K/µL

Question: And the ABNEUT (300 mg/kg-day)?
Answer: 1.220±0.506 K/µL

Question: What about the ABRETi (300 mg/kg-day) of the same compound?
Answer: 181.86±36.58 10^9/L

Question: And the ALB (300 mg/kg-day)?
Answer: 4.15 ± 0.28 g/dL

Question: And the ALPi (300 mg/kg-day)?
Answer: 54.1±22.2 U/L

Question: What about the APTT (300 mg/kg-day) of the same compound?
Answer: 22.79 s

Question: What about the BUN (300 mg/kg-day) of the same compound?
Answer: 17.6 ± 4.5 mg/dL

Question: What about the CHOL (300 mg/kg-day) of the same compound?
Answer: 107.5 ± 21.4 mg/dL

Question: What about the GLOB (300 mg/kg-day) of the same compound?
Answer: 4.16 ± 0.64 g/dL

Question: What about the GLUC (300 mg/kg-day) of the same compound?
Answer: 151.4 ± 28.6 mg/dL

Question: What about the HCT (300 mg/kg-day) of the same compound?
Answer: 48.02±1.91%

Question: And the HGB (300 mg/kg-day)?
Answer: 14.98 ± 0.42 g/dL

Question: And the “Kidney Weight” value (300 mg/kg-day)?
Answer: 1.94 g

Question: What about the “Kidney/Body Weight” value (300 mg/kg-day) of the same compound?
Answer: 0.59%

Question: And the “Kidney/Brain Weight” value (300 mg/kg-day)?
Answer: 97.1%

Question: What about the “Liver Weight” value (300 mg/kg-day) of the same compound?
Answer: 8.59 g

Question: What about the “Liver/Body Weight” value (300 mg/kg-day) of the same compound?
Answer: 2.63%

Question: And the “Liver/Brain Weight” value (300 mg/kg-day)?
Answer: 430%
